In assay [1] the test system is #3_18 (group 7) (DNA, aptamer) ATACCAGCTTATTCAATTAGCATGGTGCTGAGGCTTGATCTGGAGGTCGTGAACGAAAATTGGTCGTTTAGTTGGCTCGTAGATAGTAAGTGCAATCT
Put plainly: fluorescent aptamer release from capture-oligo magnetic beads. Conditions: 100 mM NaCl, 5 mM KCl, 2 mM MgCl2, 1 mM CaCl2; 20 mM Tris-HCl pH 7.6, 21 °C; capture oligo i-ODN2Sp; 1 mM compound; threshold 1 pmol eluted.

The subject of assay [2] is #13_83 (group 3 representative) (DNA, aptamer) ATACCAGCTTATTCAATTGGGGAGATCTTGAGGCTCGATCGATAGTAGCTGTGACAGTCTACGTTTTATGGTATGCGGGTAGATAGTAAGTGCAATCT
The description is as above. The following applies: 100 mM NaCl, 5 mM KCl, 2 mM MgCl2, 1 mM CaCl2; 20 mM Tris-HCl pH 7.6, 21 °C; capture oligo i-ODN2Sp; 1 mM compound; threshold 1 pmol eluted.

Assay [3] has as its system #3_7 (group 1) (DNA, aptamer) ATACCAGCTTATTCAATTGGTGGTAGGATGGGCTCGATCGAGGTCTTCAGTCGGCTCGGTTTAGTTTATGTTCTCCTGTAGATAGTAAGTGCAATCT
The assay is described as above. Conditions: 100 mM NaCl, 5 mM KCl, 2 mM MgCl2, 1 mM CaCl2; 20 mM Tris-HCl pH 7.6, 21 °C; capture oligo i-ODN2Sp; 1 mM compound; threshold 1 pmol eluted.

Assay [4] has the same test system. As to the kind of experiment: fluorescent aptamer release from capture-oligo magnetic beads, one-site fit. Conditions: 100 mM NaCl, 5 mM KCl, 2 mM MgCl2, 1 mM CaCl2; 20 mM Tris-HCl pH 7.6, 21 °C; capture oligo i-ODN2Sp displaced; apparent; kanamycin A 0-1.5 mM.

Take `CC(C)NCC(O)c1ccc(NS(C)(=O)=O)cc1` (stereo not drawn): the binding result in assay [1], in assay [2] and in assay [3] was “no” throughout.

As to `Cc1cc(NS(=O)(=O)c2ccc(N)cc2)no1`, the binding entry in assay [1], in assay [2] and in assay [3] was “no” each time.

As for `NC(=O)NS(=O)(=O)c1ccc(N)cc1`, the binding result in assay [1], in assay [2] and in assay [3] was “no” in each case.

Turning to `NC[C@H]1O[C@H](O[C@H]2[C@H](O)[C@@H](O[C@H]3O[C@H](CO)[C@@H](O)[C@H](N)[C@H]3O)[C@H](N)C[C@@H]2N)[C@H](O)[C@@H](O)[C@@H]1O`, the KD in assay [4] was 24 µM. For the same compound, the binding entry in assay [1] is “yes”; in assay [2] it was “no”.

Source of the values: article PMC3544269 (2012).
